Measured values published in patent US20090142369A1, “Method for preventing skin-cellular injury by using green algae extract and cosmetic composition containing green algae extract” (priority 2007, published 2009).

Tested on: fibroblasts
Test: protective effects on UV-induced cytotoxicity (fibroblast survival rates)
Type: cell-based, human
Method: Green algae extracts (20 mg/ml and 10 mg/ml), Vitamin C, and Vitamin E treated fibroblasts are taken as subjects of the present experiment. The fibroblast survival rates are analyzed after 24, 48 and 72 hours of UV exposure and the results are quantified in the histogram.

Row | Molecule | fibroblast survival rate, as % of non-UV-exposed control (Vitamin C 0.15 mM, after 24 hours of UV exposure) | fibroblast survival rate, as % of non-UV-exposed control (Vitamin C 0.15 mM, after 48 hours of UV exposure) [%] | fibroblast survival rate, as % of non-UV-exposed control (Vitamin C 0.15 mM, after 72 hours of UV exposure) [%] | fibroblast survival rate, as % of non-UV-exposed control (Vitamin E 25 μM, after 24 hours of UV exposure) | fibroblast survival rate, as % of non-UV-exposed control (Vitamin E 25 μM, after 48 hours of UV exposure) [%] | fibroblast survival rate, as % of non-UV-exposed control (Vitamin E 25 μM, after 72 hours of UV exposure) [%]
1 | O=C1O[C@H]([C@@H](O)CO)C(O)=C1O [Vitamin C] | about 53% | ~29 | ~22 |  |  | 
2 | Vitamin E |  |  |  | about 49% | ~27 | ~23
